Test results: US10675360B2 (MADRIGAL PHARMACEUTICALS, INC., priority 2014, dated 2020)

Assay: Stability in mouse plasma
Type: in vitro ADME
Conditions: 1 h
Method: SDC-TRAP-0022 and SDC-TRAP-0028 were incubated in human and mouse plasma for 2 h at 37° C. and assayed for integrity at 0.25, 0.5, 1 and 2 h. The values reported below are the remaining of the parent compound at the end of the 2 h incubation period.
This solution was used to precipitate all plasma samples in the study. 200 μL was pipetted into a 96 deepwell plate over dry ice. 10 μL of 1 mM stock in DMSO was added to a 1.5 mL microfuge tube, then 990 μL of plasma. Samples were mixed by vortex, then 50 μL of each sample was added in triplicate to a 96-well plate containing internal standard solution. This was designated the 0 hour time point sample. 250 μL of the remaining plasma sample was added to each of four 96 deepwell plates—one per time point. Samples were incubated at 37° C. with gentle shaking for 0.25, 0.5, and 1 hour. After each time point, one plate of each sample was removed from the shaker and placed on wet ice for approximately 2 minutes. 50 μL plasma aliquots (in triplicate) were added to the deepwell plate containing internal standard solution. After the last time point was extracted, the 96 deepwell plate was vortexed, then centrifuged at 2-8° C. 150 μL of supernatant was collected and 25 μL of water was added. Samples were mixed and analyzed by LC-MS/MS.
The stability of seven SDC-TRAP types in mouse plasma was measured as follows. 990 μL mouse plasma aliquots from a common stock were spiked with 10 μL of 1 mM stock of one of seven SDC-TRAP samples identified in the table below. Each sample was mixed and divided into 250 μL aliquots, each representing time points 0, 15 minutes, 30 minutes or 1 hour. At the prescribed time point, 3×50 μL samples were each mixed with 200 μL of methanol containing internal standard and held on dry ice until all time point samples were extracted. The samples collectively were vortex mixed for 1.5 minutes at 1500 rpm, then centrifuged at 4400 rpm for 10 minutes at 8° C.

SMILES | % Remaining (mouse, plasma, 10 μM) [%] | % Remaining (mouse plasma, 37° C.) [%]
CCNC(=O)c1nnc(-c2cc(C(C)C)c(O)cc2O)n1-c1ccc(Oc2ccc(OC(=O)N(C)CCOC(=O)Nc3cccc4c3CN(C3CCC(=O)NC3=O)C4=O)cc2)cc1 (stereo not shown) | 51.2 | –
CCc1c2c(nc3ccc(OC(=O)N(C)CCn4ccc5cc(-n6c(O)nnc6-c6cc(C(C)C)c(O)cc6O)ccc54)cc13)-c1cc3c(c(=O)n1C2)COC(=O)C3(O)CC (stereo not shown) [SDC-TRAP-0022, 4,11-diethyl-4-hydroxy-3,14-dioxo-3,4,12,14-tetrahydro-1H-pyrano[3′,4′:6,7]indolizino[1,2-b]quinolin-9-yl (2-(5-(3-(2,4-dihydroxy-5-isopropylphenyl)-5-hydroxy-4H-1,2,4-triazol-4-yl)-1H-indol-1-yl)ethyl)(methyl)carbamate] | – | 21
CCc1c2c(nc3ccc(O)cc13)-c1cc3c(c(=O)n1C2)COC(=O)C3(CC)OC(=O)N(C)CCOCCn1ccc2cc(-n3c(O)nnc3-c3cc(C(C)C)c(O)cc3O)ccc21 (stereo not shown) [SDC-TRAP-0037, 4,11-diethyl-9-hydroxy-3,14-dioxo-3,4,12,14-tetrahydro-1H-pyrano[3′,4′:6,7]indolizino[1,2-b]quinolin-4-yl (2-(2-(5-(3-(2,4-dihydroxy-5-isopropylphenyl)-5-hydroxy-4H-1,2,4-triazol-4-yl)-1H-indol-1-yl)ethoxy)ethyl)(methyl)carbamate] | – | 95
CCc1c2c(nc3ccc(O)cc13)-c1cc3c(c(=O)n1C2)COC(=O)C3(CC)OC(=O)CCC(=O)N1CCC(Cc2ccc(-n3c(O)nnc3-c3cc(C(C)C)c(O)cc3O)cc2)CC1 (stereo not shown) [SDC-TRAP-0042, 4,11-diethyl-9-hydroxy-3,14-dioxo-3,4,12,14-tetrahydro-1H-pyrano[3′,4′:6,7]indolizino[1,2-b]quinolin-4-yl 4-(4-(4-(3-(2,4-dihydroxy-5-isopropylphenyl)-5-hydroxy-4H-1,2,4-triazol-4-yl)benzyl)piperidin-1-yl)-4-oxobutanoate] | – | 74
CCc1c2c(nc3ccc(OC(=O)N(C)CCCCN4CCN(Cc5ccc(-n6c(O)nnc6-c6cc(C(C)C)c(O)cc6O)cc5)CC4)cc13)-c1cc3c(c(=O)n1C2)COC(=O)C3(O)CC (stereo not shown) [SDC-TRAP-0044, 4,11-diethyl-4-hydroxy-3,14-dioxo-3,4,12,14-tetrahydro-1H-pyrano[3′,4′:6,7]indolizino[1,2-b]quinolin-9-yl (4-(4-(4-(3-(2,4-dihydroxy-5-isopropylphenyl)-5-hydroxy-4H-1,2,4-triazol-4-yl)benzyl)piperazin-1-yl)butyl)(methyl)carbamate] | – | 61
CCc1c2c(nc3ccc(O)cc13)-c1cc3c(c(=O)n1C2)COC(=O)C3(CC)OC(=O)N1CCN(Cc2ccc(-n3c(O)nnc3-c3cc(C(C)C)c(O)cc3O)cc2)CC1 (stereo not shown) [SDC-TRAP-0047, 4,11-diethyl-9-hydroxy-3,14-dioxo-3,4,12,14-tetrahydro-1H-pyrano[3′,4′:6,7]indolizino[1,2-b]quinolin-4-yl 4-(4-(3-(2,4-dihydroxy-5-isopropylphenyl)-5-hydroxy-4H-1,2,4-triazol-4-yl)benzyl)piperazine-1-carboxylate] | – | 89
CCc1c2c(nc3ccc(O)cc13)-c1cc3c(c(=O)n1C2)COC(=O)C3(CC)OC(=O)N(C)CCCCN1CCN(Cc2ccc(-n3c(O)nnc3-c3cc(C(C)C)c(O)cc3O)cc2)CC1 (stereo not shown) [SDC-TRAP-0055, 4,11-diethyl-9-hydroxy-3,14-dioxo-3,4,12,14-tetrahydro-1H-pyrano[3′,4′:6,7]indolizino[1,2-b]quinolin-4-yl (4-(4-(4-(3-(2,4-dihydroxy-5-isopropylphenyl)-5-hydroxy-4H-1,2,4-triazol-4-yl)benzyl)piperazin-1-yl)butyl)(methyl)carbamate] | 103 | –
